In ChEMBL document CHEMBL1201862, “PubChem BioAssay data set” (2004):
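Protocol summary: plate cells (96-well), add compound at 5 concentrations, incubate 48 h, interpolate endpoints linearly. At the GI50, growth is halved.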 Activity calls are given as the source filed them. No stated cut-off is given here; in the data, active = GI50 up to about 1.1 µM and inactive = higher. Where a SMILES comes first, the peptide text is derived from it. The star is where a group is joined. Cbz = O=C(OCc1ccccc1)*

Experiments:
Test in all cases: NCI anticancer screen, dose series, 48 h
MDA-MB-435 = tested on: MDA-MB-435
T47D = tested on: T47D
SF-295 = tested on: SF-295
OVCAR-4 = tested on: OVCAR-4
NCI-H522 = tested on: NCI-H522
EKVX = tested on: EKVX
Malme-3M = tested on: Malme-3M
SF-268 = tested on: SF-268
SW-620 = tested on: SW-620
SK-OV-3 = tested on: SK-OV-3
DU-145 = tested on: DU-145
UO-31 = tested on: UO-31
MDA-MB-231 = tested on: MDA-MB-231
NCI-H460 = tested on: NCI-H460
MDA-N = tested on: MDA-N
HCT-15 = tested on: HCT-15
MCF7 = tested on: MCF7
NCI-H23 = tested on: NCI-H23

| Compound | GI50 (MDA-MB-435) | GI50 (T47D) | GI50 (SF-295) | GI50 (OVCAR-4) | GI50 (NCI-H522) | GI50 (EKVX) | GI50 (Malme-3M) | GI50 (SF-268) | GI50 (SW-620) | GI50 (SK-OV-3) | GI50 (DU-145) | GI50 (UO-31) | GI50 (MDA-MB-231) | GI50 (NCI-H460) | GI50 (MDA-N) | GI50 (HCT-15) | GI50 (MCF7) | GI50 (NCI-H23) |
| --- | --- | --- | --- | --- | --- | --- | --- | --- | --- | --- | --- | --- | --- | --- | --- | --- | --- | --- |
| CC1CC[C@@]2(OC1)OC1C[C@H]3[C@@H]4CC[C@H]5CC(OC6OC(CO)C(O)C(OC7OC(CO)C(OC8OC(CO)C(O)C(OC9OC(CO)C(O)C(O)C9O)C8OC8OC(CO)C(O)C(O)C8O)C(O)C7O)C6O)[C@H](O)CC5(C)[C@H]4CCC3(C)C1[C@@H]2C (stereo not given in full) | 6.59 µM (inactive) | 1.37 µM (inactive) | 2.99 µM (inactive) | 2.4 µM (inactive) | 1.66 µM (inactive) | 4.15 µM (inactive) | 8.18 µM (inactive) | 5 µM (inactive) | 2.22 µM (inactive) | 6.95 µM (inactive) | 5.47 µM (inactive) | 2 µM (inactive) | 1.31 µM (inactive) | 7.06 µM (inactive) | 6.59 µM (inactive) | 9.48 µM | 1.66 µM (inactive) | 5.31 µM (inactive) |
| C(=N\Nc1ccc(-c2nc3ccccc3[nH]2)cc1)/c1c(-c2ccc(Cc3ccccc3)cc2)[nH]c2ccccc12 | 3.23 µM (inactive) | 7.18 µM (inactive) | 2.56 µM (inactive) | 14.1 µM (inactive) | 9.08 µM (inactive) | 20.4 µM (inactive) | 2.49 µM (inactive) | 0.925 µM (active) | 9.98 µM (inactive) | 21.6 µM (inactive) | 16.8 µM (inactive) | 10.8 µM (inactive) | 11.5 µM (inactive) | 10.8 µM (inactive) | 2.38 µM (inactive) | 4.07 µM | 5.06 µM (inactive) | 8.79 µM (inactive) |
| COC(=O)c1cc(C#N)[nH]c1-c1ccc(Br)s1 | 13.5 µM (inactive) | 1.17 µM (inactive) | 8.41 µM (inactive) | 10.1 µM (inactive) | 7.03 µM (inactive) | 3.97 µM (inactive) | 7.14 µM (inactive) | 10.1 µM (inactive) | 15.9 µM (inactive) | 11.6 µM (inactive) | 10.8 µM (inactive) | 5.7 µM (inactive) | 14.5 µM (inactive) | 17.6 µM (inactive) | 13.7 µM (inactive) | 13.7 µM | 0.459 µM (active) | 5.08 µM (inactive) |
| CCc1nc(N)nc(N)c1-c1ccc(NCCc2ccccc2)c([N+](=O)[O-])c1 | 0.389 µM (active) | 4.51 µM (inactive) | 0.317 µM (active) | 3.24 µM (inactive) | 0.56 µM (active) | 3.34 µM (inactive) | 2.38 µM (inactive) | 0.527 µM (active) | 0.163 µM (active) | 16.5 µM (inactive) | 1.14 µM (inactive) | 1.86 µM (inactive) | 8.65 µM (inactive) | 0.0687 µM (active) | 0.195 µM (active) | 0.108 µM | 1.13 µM (inactive) | 0.392 µM (active) |
| COC(=O)C(CC(C)C)NC(=O)C(CCCNC(=N)N)NC(=O)OCc1ccccc1 (stereo not drawn) (Cbz-Arg-Leu-OMe; configuration not given here) | > 100 µM (inactive) | > 100 µM (inactive) | > 100 µM (inactive) | > 100 µM (inactive) | 78.5 µM (inactive) | > 100 µM (inactive) | > 100 µM (inactive) | > 100 µM (inactive) | > 100 µM (inactive) | > 100 µM (inactive) | > 100 µM (inactive) | > 100 µM (inactive) | > 100 µM (inactive) | > 100 µM (inactive) | > 100 µM (inactive) | > 100 µM | > 100 µM (inactive) | > 100 µM (inactive) |
